Here are results for 3 compounds from patent US9750805B2, “Calcium flux agonists and methods therefor” (Nant Holdings IP, LLC, priority 2012, dated 2017).

Common to all, as to assay type: cell-based, human
For assay [1], the system named is NF-κB THP-1 cells. The assay can be described thus: NF-κB luciferase reporter synergy with TLR2 ligand and effect of Ca2+ modulating compounds (FIG. 4). The note with it: FIG. 4; calcium flux agonist plus TLR ligand. How it is done:
For example, human promonocytic THP-1 cells were incubated in the presence or absence of a suboptimal dose of the TLR2 ligand Pam2CSK4 and compared to similarly treated cells which also received suboptimal doses of ionophore (here: A23187 and ionomycin). […] In another example, NF-κB THP-1 cells (a THP-1-derived transfectant line harboring an NF-κB-driven luciferase expression cassette) were cultivated in the presence or absence of a suboptimal dose of the TLR2 ligand Pam2CSK4 and compared to similarly treated cells that also received suboptimal doses of various SERCA inhibitors.
The inventors further investigated if the nature of calcium flux was of significance as increased intracellular calcium may have different origins. To that effect, the inventors used various calcium signaling modulators to investigate the nature of the calcium flux and contribution. As can be readily taken from the data shown, extracellular calcium flux into the cell was critical for synergistic amplification of calcium signaling. More specifically, FIG. 4 illustrates the effects of different Ca^2+ modulating compounds on synergy with respect to NF-κB activation.
On the technique in general: In a reporter assay the amount or activity of a reporter protein is the signal.

Assay [2] concerns κB-LUC THP-1 reporter cells. The experiment in a line: κB-LUC THP-1 reporter response to S. aureus conditioned/spent media (FIGS. 5B-5E). From the text: Briefly, a culture of logarithmically dividing S. aureus was washed three times with RPMI 1640 (Cellgro). Concurrently, THP-1 κB-LUC THP-1's (THP-1 cells containing the stable integration of a NF-κB luciferase reporter gene) cultured in RPMI 1640 (Cellgro) supplemented with 10% FBS (Thermo HyClone, Waltham Mass.) and 1% penicillin-streptomycin-fungizone (Thermo HyClone) were washed three times with RPMI 1640 (Cellgro) and transferred to the bottom compartment of a 24-well 0.4 μm cutoff transwell plate (Corning) at a concentration of 1.2 million/mL. Dilutions of the washed S. aureus culture were then added to the top chamber of the transwell system at the indicated initial multiplicities of infection (MOI). The cells were incubated for 18 hours at 37° C. at which time aliquots of 60,000 cells were transferred to wells in a 384-well white bottom plate (Thermo). To evaluate luciferase gene expression, Bright-Glo Luciferase Assay Reagent (Promega) was added to each well and the plates were analyzed for luciferase activity using the Perkin Elmer TopCount NXT system (Perkin Elmer).
To determine whether the recognition of S. aureus-produced products could be further augmented through modulation of calcium flux, κB-LUC THP-1 reporter cells were incubated in the presence of a 1:100 dilution (V/V) of sterile filtered S. aureus conditioned (i.e. spent) or unused sterile media and treated with a suboptimal dose (20 nM) of thapsigargin or dimethyl sulfoxide (DMSO) vehicle control as described above. Briefly, conditioned media was produced by culturing S. aureus in RPMI with 10% fetal bovine serum overnight in a shaking incubator at 37° C. following which the bacteria were pelleted by centrifugation and the supernatants filter-sterilized using a 0.2 μm filter (VWR Radnor PA). The κB-LUC THP-1 cells were incubated in the presence of the conditioned/spent media for 18 hours prior to luciferase assay as described above.

For assay [3], the system named is TLR (TLR2, TLR4, TLR5, TLR9) and NOD (NOD1, NOD2) family members. The assay can be described thus: IL-8 production with TLR and NOD ligands plus suboptimal calcium flux agonist (FIGS. 3A-3E). The note with it: suboptimal doses: 20 nM thapsigargin, 316 nM A23187, 1 μM ionomycin, 10 μM cyclopiazonic acid, 31.6 μM DBHQ. How it is done:
To investigate if that observation was also true for other pattern recognition receptors, and especially for TLR and NOD receptors and other ligands, the inventors tested numerous TLR and NOD receptors and various ligands.
The doses used in this experiment were 20 nM for thapsigargin, 316 nM for A23187, 1 μM for ionomycin, 10 μM for cyclopiazonic acid, and 31.6 μM for DBHQ.
Thus, a clear pattern of adjuvant activity of calcium flux agonists on the immune response, and especially on IL-8 production and NF-κB signaling is evident where the immune response is associated with a TLR- or NOD-mediated event.

As for `O=C(O)CN(CCOCCOCCN(CC(=O)O)CC(=O)O)CC(=O)O` [EGTA], the “effect of Ca2+ modulating compound on synergy with respect to NF-κB activation” value in assay [1] was “reduces synergistic signal down to levels in line with what is achieved by TLR ligand alone”. In addition, the “effect on calcium flux-induced synergy” value in assay [2] is listed as “inhibited”.

For `CC(C)(C)c1cc(O)c(C(C)(C)C)cc1O` [DBHQ, 2,5-di-tert-butylhydroquinone], the “effect on IL-8 production with TLR and NOD ligands” value in assay [3] was “synergistic effect”.

As to `CN([C@@H](Cc1ccc(OS(=O)(=O)c2cccc3cnccc23)cc1)C(=O)N1CCN(c2ccccc2)CC1)S(=O)(=O)c1cccc2cnccc12` [KN-62], the “effect of Ca2+ modulating compound on synergy with respect to NF-κB activation” value in assay [1] was “does not alter reporter gene expression levels”.
